# Experimental data reported in paper PMC5817008 (Analytical biochemistry, 2017).
# Where two headings read alike, the source gives them in different places.
# Key:
# [1] = system: F. tularensis IspD (FtIspD); assay type: biochemical, Francisella tularensis
# [2] = system: Francisella tularensis subsp. novicida Utah 112; assay: microbe, parasite or virus in culture; assay type: cell-based; conditions: for EC50: read-out: EC50, growth inhibition
# [3] = molecular target: T1, E.coli IspD (EcIspD) (Escherichia coli, UniProt Q46893); assay: Secondary screen, cuvette-based assay with EcIspD; assay type: biochemical
# T1 sequence (Q46893 1-236): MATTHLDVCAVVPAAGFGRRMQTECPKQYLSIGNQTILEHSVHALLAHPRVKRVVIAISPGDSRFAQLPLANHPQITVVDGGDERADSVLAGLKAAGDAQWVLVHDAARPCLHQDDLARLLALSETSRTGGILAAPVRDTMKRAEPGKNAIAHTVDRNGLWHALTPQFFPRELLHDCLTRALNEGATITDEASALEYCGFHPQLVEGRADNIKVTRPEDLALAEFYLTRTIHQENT
# [4] = molecular target: T2, YpIspC (Yersinia pestis, UniProt Q8ZH62); assay type: biochemical
# [5] = molecular target: T2, YpIspC; assay type: biochemical; remark: listed apart in the source
# [6] = literature search; cited from earlier work
# [7] = system: Yersinia pestis subsp. A1122; conditions: read-out: EC50, growth inhibition; cited from earlier work
# [8] = system: Francisella tularensis subsp. novicida Utah 112; conditions: read-out: EC50, growth inhibition; cited from earlier work
# [9] = molecular target: Y. pestis IspC (YpIspC) (Yersinia pestis, UniProt Q8ZH62); assay: biochemical; conditions: for remaining activity at 100 µM: read-out: % Residual Activity; for % Residual Activity: 100 µM
# [10] = system: Yersinia pestis subsp. A1122; assay: microbe, parasite or virus in culture; assay type: cell-based
# [11] = system: CYP34A; conditions: direct competitive inhibitor; cited from earlier work
# [12] = system: JNK; conditions: cited from earlier work
# [13] = molecular target: PI3K; conditions: competitive inhibitor; cited from earlier work
# [14] = system: FtIspD; assay type: biochemical, Francisella tularensis
# [15] = system: FtIspD; assay type: biochemical, Francisella tularensis; remark: listed apart in the source
# [16] = Yersinia pestis, SUBSP.A1122, read-out: EC50, growth inhibition
# T2 sequence (Q8ZH62 whole entry, looked up): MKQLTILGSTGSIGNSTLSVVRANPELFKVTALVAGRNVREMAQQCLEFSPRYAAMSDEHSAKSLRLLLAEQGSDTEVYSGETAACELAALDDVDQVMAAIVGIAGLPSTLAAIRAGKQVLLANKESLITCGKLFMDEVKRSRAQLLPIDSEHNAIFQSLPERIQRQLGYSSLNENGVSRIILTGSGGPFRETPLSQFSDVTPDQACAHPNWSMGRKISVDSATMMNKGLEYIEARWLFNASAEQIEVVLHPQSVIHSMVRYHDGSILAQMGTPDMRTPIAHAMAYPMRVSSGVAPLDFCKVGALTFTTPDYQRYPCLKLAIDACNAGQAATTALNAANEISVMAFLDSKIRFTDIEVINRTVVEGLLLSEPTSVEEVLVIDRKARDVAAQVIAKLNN
# Sequence of Y. pestis IspC (YpIspC) (Q8ZH62 whole entry, looked up): as above
compound,measurement,setting,value
"O=C1Nc2ccc(I)cc2C1=Cc1cc(Br)c(O)c(Br)c1 [GW5074, 3-(3,5-Dibromo-4-hydroxybenzylidine-5-iodo-1,3-dihydro-indol-2-one)]",hit identification in the primary screen with FtIspD,[1],identified as inhibitors of FtIspD
same,antibacterial activity in the quaternary screen,[2],significantly inhibit bacterial growth
same,residual activity of EcIspD in the secondary screen,"[3]; secondary screen, 100 μM",47%
Cc1ccc(C(=O)Nc2ccc(S(=O)(=O)O)c3cc(S(=O)(=O)O)cc(S(=O)(=O)O)c23)cc1NC(=O)c1cccc(NC(=O)Nc2cccc(C(=O)Nc3cc(C(=O)Nc4ccc(S(=O)(=O)O)c5cc(S(=O)(=O)O)cc(S(=O)(=O)O)c45)ccc3C)c2)c1 [Suramin Hexasodium],aggregating / non-aggregating inhibitor,[4],non-aggregating
same,antibacterial activity in the quaternary screen,[2],failed to show significant antimicrobial activity
same,attenuation of inhibition in the presence of detergent,[5],did not attenuate inhibition
"CC(=O)c1c(O)c(C)c(O)c(Cc2c(O)c3c(c(C(=O)C=Cc4ccccc4)c2O)OC(C)(C)C=C3)c1O [Rottlerin, 3′-[(8-Cinnamoyl-5,7-dihydroxy-2,2-dimethyl-2H-1-benzopyran-6-yl)methyl]-2′,4′,6′-trihydroxy-5′-methylacetophenone]",residual FtIspD activity in the primary screen,[1],52%
same,forming aggregates in solution,[6],forming aggregates in solution
same,antibacterial activity in the quaternary screen,[2],significantly inhibit bacterial growth
O=C(Nc1cccc(C(=O)Nc2ccc(S(=O)(=O)O)c3cc(S(=O)(=O)O)cc(S(=O)(=O)O)c23)c1)Nc1cccc(C(=O)Nc2ccc(S(=O)(=O)O)c3cc(S(=O)(=O)O)cc(S(=O)(=O)O)c23)c1 [NF023],antibacterial activity in the quaternary screen,[2],failed to show significant antimicrobial activity
CC(=O)N(O)CCCP(=O)(O)O [FR900098],EC50,[7],29 µM
same,EC50,[8],23 µM
"COc1ccc2c(c[n+](C)c3c4cc5c(cc4ccc23)OCO5)c1OC.[Cl-] [chelerythrine chloride, 1,2-Dimethoxy-N-methyl(1,3) benzodioxolo(5,6-c)phenanthridinium chloride]",hit identification in the primary screen with YpIspC,[9],identified as inhibitors of IspC
same,antibacterial activity in the quaternary screen,[2],significantly inhibit bacterial growth
same,EC50,[10]; [16],> 100 µM
O=c1c(O)c(-c2ccc(O)c(O)c2)oc2cc(O)cc(O)c12 [Quercetin],"FtIspD activity, % of the uninhibited control",[1],4%
same,Ki,[11],15.4 µM
same,forming aggregates in solution,[6],forming aggregates in solution
same,remaining activity at 100 µM,[9],4.83%
same,inhibition at 100 µM,[9]; read-out: inhibition of the catalytic activity of YpIspC,> 95%
same,residual growth,[2],less than 25%
same,EC50,[2]; Francisella tularensis,< 50 µM
same,EC50,[2],36 µM
same,EC50,[10]; [16],< 50 µM
same,EC50,"[10]; read-out: EC50, growth inhibition",29 µM
same,IC50,[12],1 µM
same,Kd,[13],0.28 µM
O=c1c(O[C@@H]2O[C@H](CO)[C@@H](O)[C@H](O)[C@H]2O)c(-c2ccc(O)c(O)c2)oc2cc(O)cc(O)c12 [Quercetin 3-β-D-glucoside],% Residual Activity,[9],76.25%
"Cc1cc(N)c2ccccc2[n+]1CCCCCCCCCC[n+]1c(C)cc(N)c2ccccc21.O.[Cl-].[Cl-] [Dequalinium chloride, 1,1′-Decamethylenebis(4-aminoquinaldinium) dichloride hydrate]",forming aggregates in solution,[6],forming aggregates in solution
same,hit identification in the primary screen with YpIspC,[9],identified as inhibitors of IspC
same,antibacterial activity in the quaternary screen,[2],significantly inhibit bacterial growth
same,EC50,[10]; [16],> 100 µM
"CCCc1c(-c2ccc(O)cc2)nn(-c2ccc(O)cc2)c1-c1ccc(O)cc1 [PPT, 1,3,5-tris(4-hydroxyphenyl)-4-propyl-1H-pyrazole]",hit identification in the primary screen with FtIspD,[1],identified as inhibitors of FtIspD
same,antibacterial activity in the quaternary screen,[2],significantly inhibit bacterial growth
same,remaining activity at 100 µM,[3]; read-out: residual activity of EcIspD in the secondary screen,55%
C[C@@H]1O[C@@H](Oc2c(-c3ccc(O)c(O)c3)oc3cc(O)cc(O)c3c2=O)[C@H](O)[C@H](O)[C@H]1O [Quercitrin],remaining activity at 100 µM,[9],78.2%
C[C@]12C=CC(=O)C=C1CC[C@@H]1C2=CC[C@]2(C)[C@@H](C(=O)CN3CCN(c4cc(N5CCCC5)nc(N5CCCC5)n4)CC3)CC[C@@H]12.O=C(O)/C=C\C(=O)O [U-74389G maleate],antibacterial activity in the quaternary screen,[2],failed to show significant antimicrobial activity
COc1cc(/C=C(\C#N)C(=O)c2ccc(O)c(O)c2)cc(I)c1O [I-OMe-Tyrphostin AG 538],antibacterial activity in the quaternary screen,[2],failed to show significant antimicrobial activity
"C[n+]1cc2c3c(ccc2c2ccc4cc5c(cc4c21)OCO5)OCO3 [Sanguinarine chloride, 13-Methyl-[1, 3]benzodioxolo[5,6-c]-1,3-dioxolo[4,5-i] phenanthridinium chloride]",aggregating / non-aggregating inhibitor,[4],aggregating inhibitor
same,dependence of IC50 on enzyme concentration,[4],decreases with a decrease in YpIspC concentration
same,antibacterial activity in the quaternary screen,[2],significantly inhibit bacterial growth
O=c1c(O[C@@H]2O[C@H](CO)[C@H](O)[C@H](O)[C@H]2O)c(-c2ccc(O)c(O)c2)oc2cc(O)cc(O)c12 [Quercetin 3-D-Galactoside],% Residual Activity,[9],76.779%
O.Oc1cc(O)c2c(c1)O[C@H](c1ccc(O)c(O)c1)[C@@H](O)C2 [Catechin],% Residual Activity,[9],96.65%
O=C(O)C1=CC(=C(c2ccc(O)c(C(=O)O)c2)c2ccc(O)c(C(=O)O)c2)C=CC1=O [Aurintricarboxylic acid],antibacterial activity in the quaternary screen,[2],failed to show significant antimicrobial activity
NC(Cc1cc(O)c(O)cc1O)C(=O)O (racemic) [6-hydroxy-DL-DOPA],mode of inhibition with respect to CTP,[14],competitive
same,mode of inhibition with respect to MEP,[14],noncompetitive
same,antibacterial activity in the quaternary screen,[2],failed to show significant antimicrobial activity
same,attenuation of inhibition in the presence of detergent,[15],did not attenuate inhibition
